The values that follow come from publication PMC6270994, “The Hydractinia echinata Test-System. III: Structure-Toxicity Relationship Study of Some Azo-, Azo-Anilide, and Diazonium Salt Derivatives” (Molecules, 2014).

For one experiment, the system named is Hydractinia echinata. Description: Hydractinia echinata test system (HeTS): reduction of Cs+-induced metamorphosis of larvae. The format is in vivo. As to conditions: Hydractinia echinata; MRC50 in mol/L = concentration for 50% decrease of metamorphosis vs control; larvae exposed 3 h with Cs+, read after 24 h; read-out: M: experimental Mlog(1/MRC50) (converted). How it is done:
The average (C) concentrations of these values were calculated too. The MRC50 value calculations (Chicu et al.) result from the graphical representation of the metamorphosis variation, M (%), (Y axis) function of the xenobiotic’s concentration (mol/L) (X axis), where the metamorphosis decreases with the rise of the xenobiotic’s concentration. Thus, the MRC50 value represents the xenobiotic’s concentration (mol/L) necessary for a 50% decrease of metamorphosis, with respect to control.
For each concentration of substance experiments were performed in triplicate and were repeated at least twice.
Colonies of H. echinata (Biologische Anstalt, Helgoland, Germany) were used to obtain eggs and larvae. The culture medium was artificial seawater (980 mosmol, pH 8.2, 18 °C). In laboratory an artificial metamorphosis can be synchronically started by the introduction of Cs^+ ions or by using seawater without Mg^2+ ions; it then lasts only 24 h. Under the action of external stimulus of Cs^+ ions or Cs^+ ions together with the tested compounds, one part of larvae further lives as such and another one is metamorphosized to the polyp form. The evaluation of the influence of the tested substance is very clear this way, the proposed method being based on this aspect.
H. echinata larvae were exposed to seawater containing Cs^+ and simultaneously one of the test substances for 3 h. The percentage of animals that underwent metamorphosis (development into polyps) was determined after 24 h. […] We chose a concentration of inducers which caused about […] to three quarters of the larvae to metamorphose in order to have conditions which are highly sensitive against an inhibitory influence. […] This concentration was termed MRC50 (for Metamorphosis Reduction Concentration) and is similar to the effective EC50 concentration that gives half maximal effective response.
In the case of `Nc1c(/N=N/c2ccc(-c3ccc(/N=N/c4cc(S(=O)(=O)O)c5ccccc5c4N)cc3)cc2)cc(S(=O)(=O)O)c2ccccc12` [Compound 82, Congo Red], the EC50 is 32.4 µM.

Consider `Cc1cc(-c2ccc(/N=N/c3ccc4c(S(=O)(=O)O)cc(S(=O)(=O)O)c(N)c4c3O)c(C)c2)ccc1/N=N/c1ccc2c(S(=O)(=O)O)cc(S(=O)(=O)O)c(N)c2c1O` [Compound 89, Direct Blue 53 (Evans Blue)], for which the EC50 is 7.41 µM.

On to `Cc1cc(-c2ccc(/N=N/c3c(S(=O)(=O)O)cc4cc(S(=O)(=O)O)cc(N)c4c3O)c(C)c2)ccc1/N=N/c1c(S(=O)(=O)O)cc2cc(S(=O)(=O)O)cc(N)c2c1O` [Compound 90, Trypanblue (Direct Blue 14)], for which the EC50 is 81.3 µM.

Consider `COc1cc(-c2ccc(-n3nc(-c4ccccc4)n[n+]3-c3ccccc3)c(OC)c2)ccc1-n1nc(-c2ccccc2)n[n+]1-c1ccccc1` [Compound 95, Tetrazolium Blue Chloride], for which the EC50 is 91.2 µM.

For the molecule `O=S(=O)(O)c1cc(/N=N/c2ccc(O)cc2O)ccc1/C=C/c1ccc(/N=N/c2ccc(O)cc2O)cc1S(=O)(=O)O` [Compound 97, 5-[(E)-2-(2,4-Dihydroxyphenyl)-diazen-1-yl]-2-[(E)-2-{4-[(E)-2-(2,4-dihydroxyphenyl)-diazen-1-yl]-2-sulfophenyl}ethenyl]-benzene-1-sulfonic acid], the EC50 is 186 µM.

Regarding `O=C(O)c1cc(N=Nc2ccc(C=Cc3ccc(N=Nc4ccc(O)cc4C(=O)O)cc3S(=O)(=O)O)c(S(=O)(=O)O)c2)ccc1O` [Compound 98, 2-{2-[4-(2-{4-[2-(3-Carboxy-4-hydroxy-phenyl)diazen-1-yl]-2-sulfophenyl}ethenyl)-3-sulfophenyl]diazen-1-yl}-5-hydroxybenzoic acid], the EC50 was 407 µM.

On to `O=S(=O)(O)c1cc(N=Nc2c(O)ccc3ccccc23)ccc1C=Cc1ccc(N=Nc2c(O)ccc3ccccc23)cc1S(=O)(=O)O` [Compound 100, 5-[2-(2-Hydroxy-naphthalen-1-yl)diazen-1-yl]-2-(2-{4-[2-(2-hydroxynaphthalen-1-yl)diazen-1-yl]-2-sulfophenyl}ethenyl)-benzene-1-sulfonic acid], for which the EC50 is 28.2 µM.

Still in this experiment, the particulars now being: Hydractinia echinata; parent dye, Table 2; read-out: F(1+2+...)e experimental toxicity log(1/MRC50) (converted).
For `O=S(=O)(O)c1cc(/N=N/c2ccc(O)cc2O)ccc1/C=C/c1ccc(/N=N/c2ccc(O)cc2O)cc1S(=O)(=O)O` [Compound 97, 5-[(E)-2-(2,4-Dihydroxyphenyl)-diazen-1-yl]-2-[(E)-2-{4-[(E)-2-(2,4-dihydroxyphenyl)-diazen-1-yl]-2-sulfophenyl}ethenyl]-benzene-1-sulfonic acid], the EC50 was 186 µM.

The same experiment, now with this note: MRC50 in mol/L = concentration for 50% decrease of metamorphosis vs control; larvae exposed 3 h with Cs+, read after 24 h.
Turning to `Nc1ccc(N=Nc2ccc(-c3ccc(N=Nc4c(S(=O)(=O)[O-])cc5cc(S(=O)(=O)[O-])c(N=Nc6ccccc6)c(O)c5c4N)cc3)cc2)c(N)c1.[Na+].[Na+]` [Compound 83, Direct Black 38], the “M: experimental Mlog(1/MRC50)” value worked out at 4.26.

Consider `O=S(=O)([O-])c1cc(N=Nc2c(O)ccc3ccccc23)ccc1-c1ccc(N=Nc2c(O)ccc3ccccc23)cc1S(=O)(=O)[O-].[Na+].[Na+]` [Compound 87, Acid Red 97], for which the “M: experimental Mlog(1/MRC50)” value came to 4.11.

For the molecule `COc1cc(-c2ccc(N=Nc3c(S(=O)(=O)[O-])cc4cc(S(=O)(=O)[O-])cc(N)c4c3O)c(OC)c2)ccc1N=Nc1c(S(=O)(=O)[O-])cc2cc(S(=O)(=O)[O-])cc(N)c2c1O.[Na+].[Na+].[Na+].[Na+]` [Compound 91, Direct Blue 15 (Aizen Direct Sky Blue 5B)], the “M: experimental Mlog(1/MRC50)” value is given as 3.69.

As to `COc1cc(-c2ccc(N=Nc3ccc4c(S(=O)(=O)[O-])cc(S(=O)(=O)[O-])c(N)c4c3O)c(OC)c2)ccc1N=Nc1ccc2c(S(=O)(=O)[O-])cc(S(=O)(=O)[O-])c(N)c2c1O.[Na+].[Na+].[Na+].[Na+]` [Compound 92, Direct Blue 1], the “M: experimental Mlog(1/MRC50)” value is on record as 3.79.

Take `COc1cc(-c2ccc([N+]#N)c(OC)c2)ccc1[N+]#N` [Compound 94, Fast Blue B]: the “M: experimental Mlog(1/MRC50)” value was determined as 4.30.

Turning to `O=S(=O)([O-])c1cc(N=Nc2ccc(O)cc2)ccc1/C=C/c1ccc(N=Nc2ccc(O)cc2)cc1S(=O)(=O)[O-].[Na+].[Na+]` [Compound 96, Brilliant Yellow], the “M: experimental Mlog(1/MRC50)” value is 3.84.

Staying with this experiment, now noted: parent dye, Table 2.
As to `O=S(=O)([O-])c1cc(N=Nc2ccc(O)cc2)ccc1/C=C/c1ccc(N=Nc2ccc(O)cc2)cc1S(=O)(=O)[O-].[Na+].[Na+]` [Compound 96, Brilliant Yellow], the “F(1+2+...)e experimental toxicity log(1/MRC50)” value was 3.84.
